Like-named read-outs stand apart in the source and are kept apart here.
Key:
hepatitis B virus [1] = assay: Antiviral action on hepatitis B virus in HepG2.2.15 cells (HBV DNA dot-blot hybridization); type: cell-based; conditions: 50% reduction of intra- or extracellular hepatitis B-specific band
Experimental: The antiviral action of the compounds of the invention on hepatitis B virus is investigated by methods based on those described by M. A. Sells et al., Proc. Natl. Acad. Sci., 84, 1005-1009 (1987) and B. E. Korba et al., Antiviral Research 19, 55-70 (1992).
The antiviral tests are carried out in 96-well microtiter plates. The first vertical row of the plate receives only growth medium and HepG2.2.15 cells. It serves as virus control.
Stock solutions of the test compounds (50 mM) are initially dissolved in DMSO, and further dilutions are prepared in the HepG2.2.15 growth medium. The compounds according to the invention are usually pipetted in a test concentration of 100 μM (1st test concentration) in each case into the second vertical test row of the microtiter plate and subsequently diluted in twofold steps […] in growth medium plus 2% by weight of fetal calf serum (volume 25 μl)
Each well of the microtiter plate then contains 225 μl of HepG2.2.15 cell suspension (5×10^4 cells/ml) in growth medium plus 2% by weight of fetal calf serum. The test mixture is incubated at 37° C. and 5% CO2 (v/v) for 4 days.
The supernatant is then aspirated off and discarded, and the wells receive 225 μl of freshly prepared growth medium. The compounds according to the invention are each added anew as 10-fold concentrated solution in a volume of 25 μl. The mixtures are incubated for a further 4 days
The supernatant and/or cells are then harvested and sucked by means of a vacuum onto 96-well dot-blot chambers covered with a nylon membrane (in accordance with the manufacturer's information).
After the supernatants or lysed cells is transferred to the nylon membrane of the blot apparatus (see above), the intra- or extracellular supernatants of the HepG2.2.15 cells are denatured (1.5 M NaCl/0.5 N NaOH), neutralized (3 M NaCl/0.5M Tris HCl, pH 7.5) and washed (2×SSC). The DNA is then baked onto the membrane by incubating the filters at 120° C. for 2-4 hours.
Detection of the viral DNA from the treated HepG2.2.15 cells on the nylon filters is usually carried out with nonradioactive, digoxigenin-labeled hepatitis B-specific DNA probes, each of which is labeled with digoxigenin, purified and employed for the hybridization in accordance with the manufacturer's information.
The prehybridization and hybridization take place in 5×SSC, 1×blocking reagent, 0.1% by weight N-lauroylsarcosine, 0.02% by weight SDS and 100 μg of herring sperm DNA. The prehybridization takes place at 60° C. for 30 minutes, and the specific hybridization takes place with 20 to 40 ng/ml of the digoxigenized, denatured HBV-specific DNA (14 hours, 60° C.). The filters are then washed.
The immunological detection of the digoxigenin-labeled DNA took place in accordance with the manufacturer's information: […]

hepatitis B virus [2] = conditions: examples of U.S. Pat. No. 7,074,784, values as described in that patent; cited from earlier work
[3] = Hepatitis B virus, HepG2.2.15, HepG2.2.15 cells

Work on CCOC(=O)C1=C(CN2CCOCC2)NC(c2nccs2)=NC1c1ccc(F)cc1Br (single isomer, unassigned; (-)) [(−)-5] yielded an IC50 (hepatitis B virus [1]; HepG2.2.15 cells) of 0.1 nM.
Molecule COC(=O)C1=C(CN2CCOCC2)NC(c2nccs2)=NC1c1ccc(F)cc1Br (single isomer, unassigned; (-)) [(−)-6] has an IC50 (hepatitis B virus [1]; HepG2.2.15 cells) of 0.2 nM.
For CCOC(=O)C1=C(CN2CCOCC2)NC(c2nccs2)=NC1c1ccc(F)cc1Br (centres unmarked) [Example 5, Ethyl 4-(2-bromo-4-fluorophenyl)-2-(thiazol-2-yl)-6-(4-morpholinylmethy)-1,4-dihydropyrimidine-5-carboxylic ester], the IC50 (hepatitis B virus [1]; [3]) is listed as 0.2 nM and the IC50 (hepatitis B virus [2]) is listed as 2 to 4 nM.
COC(=O)C1=C(CN2CCOCC2)NC(c2nccs2)=NC1c1ccc(F)cc1Br (centres unmarked) [Example 6, Methyl 4-(2-bromo-4-fluorophenyl)-2-(thiazol-2-yl)-6-(4-morpholinylmethy)-1,4-dihydropyrimidine-5-carboxylic ester] gave an IC50 (hepatitis B virus [1]; [3]) of 0.3 nM.

Source: patent USRE44987E1, “Bromo-phenyl substituted thiazolyl dihydropyrimidines” (Sunshine Lake Pharma Co., Ltd., priority 2007, dated 2014)
